Converted amounts (≈) assume the structure as drawn.

Data set [1] is described as follows: Solubility of finafloxacin HCl in different concentrations of Tris solutions (Example 2). It is filed as physicochemical. The procedure: 0.25 M Tris: Water for injection 800 ml, Tris 30.3 g, sodium chloride 7.5 g, water for injection ad 1000 ml; pH was adjusted with HCl/NaOH. 0.17 M Tris: Water for injection 800 ml, Tris 20.0 g, sodium chloride 7.5 g, water for injection ad 1000 ml; pH was adjusted with HCl/NaOH. 0.08 M Tris: Water for injection 800 ml, Tris 10.0 g, sodium chloride 7.5 g, water for injection ad 1000 ml; pH was adjusted with HCl/NaOH. […] In contrast to example 1 the pH was not re-adjusted after the stepwise addition of finafloxacin.

Data set [2] is described as follows: Solubility of finafloxacin HCl in Tris, phosphate and pH-adjusted WfI (Example 1). The data set is classed as physicochemical. On the procedure:
The solubility of finafloxacin, in form of its mono-hydrochloride salt, was tested at pH values between 7.3 and 9.0, using the following solutions: 0.01 M Tris: Water for injection 800 ml, Tris 1.21 g, sodium chloride 7.5 g, water for injection ad 1000 ml; pH was adjusted with HCl/NaOH. 0.025 M Phosphate: Water for injection 800 ml, sodium dihydrogen phosphate 1.950 g, disodium hydrogen phosphate 2.225 g, sodium chloride 7.5 g, water for injection ad 1000 ml; pH was adjusted with HCl/NaOH. WfI: Water for injection 900 ml, sodium chloride 7.5 g, water for injection ad 1000 ml; pH was adjusted with HCl/NaOH.

The test system of the next data set is E. coli 25922. In words: In vitro susceptibility test (MIC), finafloxacin composition with Tris. It is filed as cell-based. Conditions: Escherichia coli, composition at pH 8.0 containing 0.05 M Tris, read-out: minimal inhibitory concentration (MIC). The procedure: (§1) The efficacy of finafloxacin compositions including Tris between pH 8.0-8.5 was examined and determined as follows:
(§2) 4.1 Bacteria were incubated in a finafloxacin composition at pH 8.0 containing 0.05 M Tris and the minimal inhibitory concentration (MIC) of finafloxacin, defined as the minimal finafloxacin concentration that inhibited the growth of the bacterium, was determined using a standard in vitro susceptibility test.

The next data set concerns S. aureus 29213. Described as above. The data set is classed as cell-based. Conditions: Staphylococcus aureus, composition at pH 8.0 containing 0.05 M Tris, read-out: minimal inhibitory concentration (MIC). The procedure: as §1, §2
Another data set concerns pathogen in the urine. Kind of data set: Microbiological cure in patients with complicated urinary tract infections and pyelonephritis. Particulars: intravenous 800 mg once daily, composition with 0.01 M Tris, 17 days after start of treatment, cure = pathogen in urine ≤10^3 cfu/ml. The data set is classed as in vivo, human. On the procedure:
4.3 Patients with complicated urinary tract infections and pyelonephritis were treated with an intravenous dose of 800 mg Finafloxacin once daily. 17 days after the start of the treatment the microbiological cure results were determined. Microbiological cure is defined as the reduction of the concentration of the pathogen in the urine to a titer of ≤10^3 cfu/ml. The finafloxacin composition comprising 0.01 M Tris caused an efficient eradication of the pathogens. The microbiological cure rate was 83%.

Another data set has as its system E. coli ATCC 25922. Kind of data set: Mouse intraperitoneal infection model, bacterial burden. The data set is classed as in vivo. Conditions: mice, composition with 0.01 M Tris, doses 4 and 12 hours post infection, burden 24 hours post infection. The procedure:
4.2 Mice were infected with 3.9×10^5 E. coli ATCC 25922 suspended in 1% porcine mucin administered by a 0.5 ml intraperitoneal injection. Antibacterial treatment with a finafloxacin composition comprising 0.01 M Tris was initiated 4 hours post infection with a second dose 12 hours post infection. The bacterial burden in the peritoneal fluid and blood culture was determined 24 hours post infection. Finafloxacin was effective at all doses with 1 mg/kg causing a reduction in burden of 3.1 log 10 cfu/g, finafloxacin administered at 3, 10 and 30 mg/kg were increasingly effective causing reductions of 4.4, 5.0 and 6.5 log 10 cfu/g, respectively.

A short description of data set [3]: 2-week intravenous toxicological appraisal in rats. It is filed as in vivo. Conditions: 2 weeks, 60, 120 and 200 mg/kg/day, in 0.01 M Tris, 0.75% (w/v) sodium chloride, pH 8.5. From the text: The test article was formulated in 0.01 M Tris containing sodium chloride to 0.75% (w/v), adjusted in water for injection to pH 8.5.
A short description of data set [4]: Stability of finafloxacin composition comprising Tris (Example 3). It is filed as physicochemical. Conditions: solution of 3.20 g/l finafloxacin, 7.80 g/l NaCl, 1.21 g/l Tris, pH 8.25, water for injection. From the text: The following composition was used to test the stability: [table]

As usually defined, the solubility is how much of the substance goes into solution per volume. A higher solubility goes with a readily soluble substance. As for `Cl.N#Cc1c(N2C[C@@H]3NCCO[C@H]3C2)c(F)cc2c(=O)c(C(=O)O)cn(C3CC3)c12` [Finafloxacin HCl], the solubility in data set [1] (0.08 M Tris, pH 7.8, pH not re-adjusted) is 4000 µg/mL; in data set [1] (0.08 M Tris, pH 8.2, pH not re-adjusted) it was 6000 µg/mL; in data set [1] (0.08 M Tris, pH 8.6, pH not re-adjusted) it was 9000 µg/mL; in data set [1] (0.08 M Tris, pH 9.0, pH not re-adjusted) it was 10000 µg/mL; in data set [1] (0.17 M Tris, pH 7.4, pH not re-adjusted) it was 2000 µg/mL; in data set [1] (0.17 M Tris, pH 7.8, pH not re-adjusted), 6000 µg/mL. The solubility stood at 10000 µg/mL in data set [1] (0.17 M Tris, pH 8.2, pH not re-adjusted); 19000 µg/mL in data set [1] (0.17 M Tris, pH 8.6, pH not re-adjusted); 23000 µg/mL in data set [1] (0.17 M Tris, pH 9.0, pH not re-adjusted); 2000 µg/mL in data set [1] (0.25 M Tris, pH 7.4, pH not re-adjusted); 8000 µg/mL in data set [1] (0.25 M Tris, pH 7.8, pH not re-adjusted); 15000 µg/mL in data set [1] (0.25 M Tris, pH 8.2, pH not re-adjusted). The solubility was 24000 µg/mL in data set [1] (0.25 M Tris, pH 8.6, pH not re-adjusted); 28000 µg/mL in data set [1] (0.25 M Tris, pH 9.0, pH not re-adjusted); 6000 µg/mL in data set [2] (0.01 M Tris, pH 7.5, pH re-adjusted); 15000 µg/mL in data set [2] (0.01 M Tris, pH 8.0, pH re-adjusted); more than 28000 µg/mL in data set [2] (0.01 M Tris, pH 8.5, pH re-adjusted); more than 28000 µg/mL in data set [2] (0.01 M Tris, pH 9.0, pH re-adjusted). Besides, the solubility in data set [2] (0.025 M Phosphate, pH 7.5, pH re-adjusted) was 2000 µg/mL; in data set [2] (0.025 M Phosphate, pH 8.0, pH re-adjusted), 4000 µg/mL; in data set [2] (0.025 M Phosphate, pH 8.5, pH re-adjusted), 6000 µg/mL; in data set [2] (0.025 M Phosphate, pH 9.0, pH re-adjusted), 8000 µg/mL; in data set [2] (pH-adjusted WfI, pH 7.5) it was 2000 µg/mL; in data set [2] (pH-adjusted WfI, pH 8.0), 4000 µg/mL. Besides, the solubility came out at 6000 µg/mL in data set [2] (pH-adjusted WfI, pH 8.5) and 6000 µg/mL in data set [2] (pH-adjusted WfI, pH 9.0).
For `N#Cc1c(N2C[C@@H]3NCCO[C@H]3C2)c(F)cc2c(=O)c(C(=O)O)cn(C3CC3)c12` [Finafloxacin, (−)-8-cyano-1-cyclopropyl-6-fluoro-7-[(4aS,7aS)-hexahydropyrrolo[3,4-b]-1,4-oxazin-6(2H)-yl]-4-oxo-1,4-dihydroquinoline-3-carboxylic acid], the MIC worked out at 0.25 µg/mL (≈ 0.628 µM) with E. coli 25922 and 0.5 µg/mL (≈ 1.26 µM) with S. aureus 29213. In the data set with pathogen in the urine, the microbiological cure rate was 83%. The reduction in burden in the data set on E. coli ATCC 25922 (1 mg/kg) is 3.1 log 10 cfu/g; in the data set on E. coli ATCC 25922 (3 mg/kg), 4.4 log 10 cfu/g; with E. coli ATCC 25922 (10 mg/kg), 5.0 log 10 cfu/g; in the data set with E. coli ATCC 25922 (30 mg/kg), 6.5 log 10 cfu/g. Also, in data set [3], the tolerability result is given as “generally well tolerated”. Moreover, the long term stability result in data set [4] is on record as “at least 24 months”. In addition, the increase in solubility in data set [2] (0.01 M Tris versus WfI and phosphate buffer) is listed as 3-4 fold.

These data come from US10576088B2, “Compositions comprising finafloxacin and Tris” (MerLion Pharmaceuticals Pte. Ltd., priority 2014, dated 2020).
